Where two headings read alike, the source gives them in different places. Ends that are not written are not given here.
Molecule | MIC (S. aureus CMCC26003; CMCC26003, 18 h) | MIC (S. aureus ATCC29213; ATCC29213, 18 h) | MIC (MRSA ATCC43300; ATCC43300, 18 h) | MIC (S. aureus 15772; 15772, 18 h) | MIC (S. aureus 15192; 15192, 18 h) | MIC (VRSA 11; 11, 18 h) | MIC (VRSA 52; 52, 18 h) | MIC (E. faecalis ATCC29212; ATCC29212, 18 h) | MIC (E. coli ATCC25922; ATCC25922, 18 h) | MIC (A. baumannii ATCC19606; ATCC19606, 18 h) | MIC (K. pneumoniae 9883; 9883, 18 h) | MIC (P. aeruginosa ATCC27853; ATCC27853, 18 h) | MIC (S. typhimurium ATCC14028; ATCC14028, 18 h) | further results
CC[C@H](C)[C@H](NC(=O)[C@H](CCCNC(=N)N)NC(=O)[C@H](CCCNC(=N)N)NC(=O)[C@@H](N)CSC1CC(=O)N(CC2CCC(C(=O)N(C)[C@H](CC(C)C)C(=O)N[C@H]3C(=O)N[C@@H](CC(N)=O)C(=O)N[C@H]4C(=O)N[C@H]5C(=O)N[C@H](C(=O)N[C@H](C(=O)O)c6cc(O)cc(O)c6-c6cc5ccc6O)[C@H](O)c5ccc(c(Cl)c5)Oc5cc4cc(c5O[C@@H]4O[C@H](CO)[C@@H](O)[C@H](O)[C@H]4O[C@H]4C[C@](C)(N)[C@H](O)[C@H](C)O4)Oc4ccc(cc4Cl)[C@H]3O)CC2)C1=O)C(=O)N[C@@H](CCCNC(=N)N)C(=O)N1CCC[C@H]1C(=O)N[C@@H](CCCNC(=N)N)C(=O)N1CCC[C@H]1C(=O)N1CCC[C@H]1C(=O)N[C@@H](CCCNC(=N)N)C(=O)N[C@@H](CC(C)C)C(=O)N1CCC[C@H]1C(=O)N[C@@H](CCCNC(=N)N)C(=O)N1CCC[C@H]1C(=O)N[C@@H](CCCNC(=N)N)C(=O)N1CCC[C@H]1C(=O)N[C@@H](CCCNC(=N)N)C(=O)N1CCC[C@H]1C(=O)O (some centres unmarked) [Vm-Bac] | 0.78(0.20) µg mL^−1 | 2.34(0.59) µg mL^−1 | 2.34(0.59) µg mL^−1 | 2.34(0.59) µg mL^−1 | 1.17(0.30) µg mL^−1 | 18.75(4.76) µg mL^−1 | 18.75(4.76) µg mL^−1 | 18.75(4.76) µg mL^−1 | 18.75(4.76) µg mL^−1 | 18.75(4.76) µg mL^−1 | >100(>25.4) µg mL^−1 | >100(>25.4) µg mL^−1 | 37.5(9.52) µg mL^−1 | 
CC[C@H](C)[C@H](NC(=O)[C@@H](N)CSC1CC(=O)N(CC2CCC(C(=O)N(C)[C@H](CC(C)C)C(=O)N[C@H]3C(=O)N[C@@H](CC(N)=O)C(=O)N[C@H]4C(=O)N[C@H]5C(=O)N[C@H](C(=O)N[C@H](C(=O)O)c6cc(O)cc(O)c6-c6cc5ccc6O)[C@H](O)c5ccc(c(Cl)c5)Oc5cc4cc(c5O[C@@H]4O[C@H](CO)[C@@H](O)[C@H](O)[C@H]4O[C@H]4C[C@](C)(N)[C@H](O)[C@H](C)O4)Oc4ccc(cc4Cl)[C@H]3O)CC2)C1=O)C(=O)N[C@@H](CC(C)C)C(=O)N[C@@H](CCCNC(=N)N)C(=O)N[C@@H](Cc1c[nH]c2ccccc12)C(=O)N1CCC[C@H]1C(=O)N[C@@H](Cc1c[nH]c2ccccc12)C(=O)N[C@@H](Cc1c[nH]c2ccccc12)C(=O)N1CCC[C@H]1C(=O)N[C@@H](Cc1c[nH]c2ccccc12)C(=O)N[C@@H](CCCNC(=N)N)C(=O)N[C@@H](CCCNC(=N)N)C(=O)N[C@@H](CCCCN)C(N)=O (some centres unmarked) [Vm-Omi] | 0.78(0.22) µg mL^−1 | 1.17(0.33) µg mL^−1 | 4.69(1.32) µg mL^−1 | >100(>28) µg mL^−1 | 0.78(0.22) µg mL^−1 | 75(21.13) µg mL^−1 | 75(21.13) µg mL^−1 | >100(>28) µg mL^−1 | >100(>28) µg mL^−1 | >100(>28) µg mL^−1 | >100(>28) µg mL^−1 | >100(>28) µg mL^−1 | >100(>28) µg mL^−1 | 
CC(C)C[C@H](NC(=O)[C@H](Cc1ccc(O)cc1)NC(=O)[C@H](Cc1c[nH]cn1)NC(=O)[C@@H](NC(=O)[C@H](CC(C)C)NC(=O)[C@H](C)NC(=O)[C@H](C)NC(=O)[C@H](CCCCN)NC(=O)CNC(=O)[C@@H](NC(=O)[C@H](Cc1c[nH]cn1)NC(=O)[C@H](CCCCN)NC(=O)CNC(=O)[C@@H](NC(=O)[C@H](Cc1c[nH]cn1)NC(=O)[C@H](C)NC(=O)[C@H](C)NC(=O)[C@H](CCCCN)NC(=O)[C@H](CCCCN)NC(=O)[C@H](Cc1ccccc1)NC(=O)[C@H](Cc1ccccc1)NC(=O)[C@H](CO)NC(=O)CNC(=O)[C@H](Cc1c[nH]c2ccccc12)NC(=O)CNC(=O)[C@@H](N)CSC1CC(=O)N(CC2CCC(C(=O)N(C)[C@H](CC(C)C)C(=O)N[C@H]3C(=O)N[C@@H](CC(N)=O)C(=O)N[C@H]4C(=O)N[C@H]5C(=O)N[C@H](C(=O)N[C@H](C(=O)O)c6cc(O)cc(O)c6-c6cc5ccc6O)[C@H](O)c5ccc(c(Cl)c5)Oc5cc4cc(c5O[C@@H]4O[C@H](CO)[C@@H](O)[C@H](O)[C@H]4O[C@H]4C[C@](C)(N)[C@H](O)[C@H](C)O4)Oc4ccc(cc4Cl)[C@H]3O)CC2)C1=O)C(C)C)C(C)C)[C@@H](C)O)C(N)=O (some centres unmarked) [Vm-Ple] |  |  |  |  |  |  |  |  |  |  |  |  |  | MIC (S. aureus CMCC26003; S. aureus CMCC26003, MH broth, 37 °C, 18 h, OD600): 0.78(0.17) µg mL^−1; MIC (S. aureus ATCC29213; S. aureus ATCC29213, MH broth, 37 °C, 18 h, OD600): 4.69(1.05) µg mL^−1; MIC (MRSA ATCC43300; MRSA ATCC43300, MH broth, 37 °C, 18 h, OD600): 4.69(1.05) µg mL^−1; MIC (S. aureus 15772; S. aureus 15772, MH broth, 37 °C, 18 h, OD600): 2.34(0.52) µg mL^−1; MIC (S. aureus 15192; S. aureus 15192, MH broth, 37 °C, 18 h, OD600): 2.34(0.52) µg mL^−1; MIC (VRSA 11; VRSA 11, MH broth, 37 °C, 18 h, OD600): 9.38(2.10) µg mL^−1; MIC (VRSA 52; VRSA 52, MH broth, 37 °C, 18 h, OD600): 9.38(2.10) µg mL^−1; MIC (E. faecalis ATCC29212; E. faecalis ATCC29212, MH broth, 37 °C, 18 h, OD600): 18.75(4.19) µg mL^−1; MIC (E. coli ATCC25922; E. coli ATCC25922, MH broth, 37 °C, 18 h, OD600): 4.69(1.05) µg mL^−1; MIC (A. baumannii ATCC19606; A. baumannii ATCC19606, MH broth, 37 °C, 18 h, OD600): 2.34(0.52) µg mL^−1; MIC (K. pneumoniae 9883; K. pneumoniae 9883, MH broth, 37 °C, 18 h, OD600): 37.5(8.37) µg mL^−1; MIC (P. aeruginosa ATCC27853; P. aeruginosa ATCC27853, MH broth, 37 °C, 18 h, OD600): >100(>22.33) µg mL^−1; MIC (S. typhimurium ATCC14028; S. typhimurium ATCC14028, MH broth, 37 °C, 18 h, OD600): 75(16.75) µg mL^−1
GWGSFFKKAAHVGKHVGKAALTHYL-NH2 [Pleurecidin] | 1.17(0.43) µg mL^−1 | 9.38(3.46) µg mL^−1 | 2.34(0.86) µg mL^−1 | 9.38(3.46) µg mL^−1 | 9.38(3.46) µg mL^−1 | 4.69(1.73) µg mL^−1 | 9.38(3.46) µg mL^−1 | 4.69(1.73) µg mL^−1 | 2.34(0.86) µg mL^−1 | 9.38(3.46) µg mL^−1 | 4.69(1.73) µg mL^−1 | 9.38(3.46) µg mL^−1 | 18.75(6.92) µg mL^−1 | 
RRIRPRPPRLPRPRPRP [Bac-7] | 37.5(17.27) µg mL^−1 | >100(>46.0) µg mL^−1 | 9.38(4.32) µg mL^−1 | 75(34.53) µg mL^−1 | 75(34.53) µg mL^−1 | 75(34.53) µg mL^−1 | 75(34.53) µg mL^−1 | 18.75(8.63) µg mL^−1 | 18.75(8.63) µg mL^−1 | >100(>46.0) µg mL^−1 | 9.38(4.32) µg mL^−1 | >100(>46.0) µg mL^−1 | 75(34.53) µg mL^−1 | 
